According to US11541050B2, “Pyrimidine derivatives for the treatment of viral infections” (JANSSEN SCIENCES IRELAND UC, priority 2011, dated 2023):

Columns and labels:
[1] = target: T1, human TLR7 (wild type sequence) (Homo sapiens, UniProt Q9NYK1); assay: TLR7 cellular NFκB-luc reporter assay, wild type TLR7; type: cell-based; design: unit not given here; details: lowest effective concentration, wild type TLR7 (compounds 74 onward)
T1 construct: expressed in transfected cells; host or cells: HEK293
T1 sequence (Q9NYK1 27-1049): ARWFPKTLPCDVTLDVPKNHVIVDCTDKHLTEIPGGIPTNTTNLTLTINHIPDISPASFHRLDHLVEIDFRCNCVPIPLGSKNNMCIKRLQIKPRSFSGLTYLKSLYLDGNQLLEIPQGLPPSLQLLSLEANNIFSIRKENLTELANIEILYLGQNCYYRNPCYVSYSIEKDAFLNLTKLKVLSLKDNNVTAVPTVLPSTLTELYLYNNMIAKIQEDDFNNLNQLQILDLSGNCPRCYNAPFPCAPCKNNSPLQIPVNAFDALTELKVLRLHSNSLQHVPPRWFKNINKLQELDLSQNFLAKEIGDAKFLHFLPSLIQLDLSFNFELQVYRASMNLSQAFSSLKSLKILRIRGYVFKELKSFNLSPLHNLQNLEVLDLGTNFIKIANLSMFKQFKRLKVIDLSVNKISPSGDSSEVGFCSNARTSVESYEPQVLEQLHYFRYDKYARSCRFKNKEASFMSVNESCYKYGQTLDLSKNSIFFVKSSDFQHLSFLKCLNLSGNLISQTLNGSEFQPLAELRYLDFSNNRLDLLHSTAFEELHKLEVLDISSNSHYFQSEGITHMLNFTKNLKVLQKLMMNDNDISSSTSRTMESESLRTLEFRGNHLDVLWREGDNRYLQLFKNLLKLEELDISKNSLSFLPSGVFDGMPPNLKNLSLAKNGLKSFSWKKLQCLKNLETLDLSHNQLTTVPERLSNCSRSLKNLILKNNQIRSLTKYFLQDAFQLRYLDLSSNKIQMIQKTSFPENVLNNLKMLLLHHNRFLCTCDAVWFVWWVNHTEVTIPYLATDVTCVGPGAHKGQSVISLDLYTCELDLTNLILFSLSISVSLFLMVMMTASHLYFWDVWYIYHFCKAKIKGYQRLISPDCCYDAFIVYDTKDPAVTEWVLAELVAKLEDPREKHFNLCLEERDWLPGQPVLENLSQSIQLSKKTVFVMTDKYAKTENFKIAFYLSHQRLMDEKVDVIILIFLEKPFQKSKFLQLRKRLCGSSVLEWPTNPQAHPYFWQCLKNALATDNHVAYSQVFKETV
Description: (§1) The ability of compounds to activate human TLR7 and/or TLR8 was assessed in a cellular reporter assay using HEK293 cells transiently transfected with a TLR7 or TLR8 expression vector and NFκB-luc reporter construct. In one instance the TLR expression construct expresses the respective wild type sequence or a mutant sequence comprising a deletion in the second leucine-rich repeat of the TLR.
(§2) Briefly, HEK293 cells were grown in culture medium (DMEM supplemented with 10% FCS and 2 mM Glutamine). For transfection of cells in 10 cm dishes, cells were detached with Trypsin-EDTA, transfected with a mix of CMV-TLR7 or TLR8 plasmid (750 ng), NFκB-luc plasmid (375 ng) and a transfection reagent and incubated for 48 hours at 37° C. in a humidified 5% CO2 atmosphere. Transfected cells were then detached with Trypsin-EDTA, washed in PBS and resuspended in medium to a density of 1.67×10^5 cells/mL. Thirty microliters of cells were then dispensed into each well in 384-well plates, where 10 μL of compound in 4% DMSO was already present. Following 6 hours incubation at 37° C., 5% CO2, the luciferase activity was determined by adding 15 μl of Steady Lite Plus substrate (Perkin Elmer) to each well and readout performed on a ViewLux ultraHTS microplate imager (Perkin Elmer). Dose response curves were generated from measurements performed in quadruplicates. Lowest effective concentrations (LEC) values, defined as the concentration that induces an effect which is at least two fold above the standard deviation of the assay, were determined for each compound.

[2] = test system: HCV replicon in Huh-7 luc/neo cells; assay: Suppression of HCV replicon replication by conditioned media from compound-treated PBMC; type: cell-based, HCV type 1 b; details: Hepatitis C virus; conditioned media from compound-treated PBMC on Huh-7 luc/neo replicon cells (compounds 74 onward); read-out: PBMC HUH-7 EC50
Description: Activation of human TLR7 results in robust production of interferon by plasmacytoid dendritic cells present in human blood. The potential of compounds to induce interferon was evaluated by looking at the antiviral activity in the HCV replicon system upon incubation with conditioned media from peripheral blood mononuclear cells (PBMC). […] The assay utilized the stably transfected cell line Huh-7 luc/neo harboring an RNA encoding a bicistronic expression construct comprising the wild type NS3-NS5B regions of HCV type 1 b translated from an Internal Ribosome Entry Site (IRES) from encephalomyocarditis virus (EMCV), preceded by a reporter gene (Firefly-luciferase) and a selectable marker gene (neoR, neomycine phosphotransferase). The construct is flanked by 5′ and 3′ NTRs (non-translated regions) from HCV type 1 b. Continued culture of the replicon cells in the presence of G418 (neoR) is dependent on the replication of the HCV RNA. The stably transfected replicon cells that replicate HCV RNA autonomously and to high levels, encoding inter alia luciferase, were used for profiling of the conditioned cell culture media.
Briefly, PBMCs were prepared from buffy coats of at least two donors using a standard Ficoll centrifugation protocol. Isolated PBMCs were resuspended in RPMI medium supplemented with 10% human AB serum and 2×10^5 cells/well were dispensed into 384-well plates containing compounds (70 μL total volume). After overnight incubation, 10 μL of supernatant was transferred to 384-well plates containing 2.2×10^3 replicon cells/well in 30 μL (plated the day before). Following 24 hours of incubation, replication was measured by assaying luciferase activity using 40 μL/well Steady Lite Plus substrate (Perkin Elmer) and measured with ViewLux ultraHTS microplate imager (Perkin Elmer). […] Recombinant interferon α-2a (Roferon-A) was used as a standard control compound.

[3] = target: T2, human TLR8 (wild type sequence) (Homo sapiens, UniProt Q9NR97); assay: TLR8 cellular NFκB-luc reporter assay, wild type TLR8; type: cell-based; design: unit not given here; details: lowest effective concentration, wild type TLR8 (compounds 74 onward)
T2 construct: expressed in transfected cells; host or cells: HEK293
T2 sequence (Q9NR97 27-1041): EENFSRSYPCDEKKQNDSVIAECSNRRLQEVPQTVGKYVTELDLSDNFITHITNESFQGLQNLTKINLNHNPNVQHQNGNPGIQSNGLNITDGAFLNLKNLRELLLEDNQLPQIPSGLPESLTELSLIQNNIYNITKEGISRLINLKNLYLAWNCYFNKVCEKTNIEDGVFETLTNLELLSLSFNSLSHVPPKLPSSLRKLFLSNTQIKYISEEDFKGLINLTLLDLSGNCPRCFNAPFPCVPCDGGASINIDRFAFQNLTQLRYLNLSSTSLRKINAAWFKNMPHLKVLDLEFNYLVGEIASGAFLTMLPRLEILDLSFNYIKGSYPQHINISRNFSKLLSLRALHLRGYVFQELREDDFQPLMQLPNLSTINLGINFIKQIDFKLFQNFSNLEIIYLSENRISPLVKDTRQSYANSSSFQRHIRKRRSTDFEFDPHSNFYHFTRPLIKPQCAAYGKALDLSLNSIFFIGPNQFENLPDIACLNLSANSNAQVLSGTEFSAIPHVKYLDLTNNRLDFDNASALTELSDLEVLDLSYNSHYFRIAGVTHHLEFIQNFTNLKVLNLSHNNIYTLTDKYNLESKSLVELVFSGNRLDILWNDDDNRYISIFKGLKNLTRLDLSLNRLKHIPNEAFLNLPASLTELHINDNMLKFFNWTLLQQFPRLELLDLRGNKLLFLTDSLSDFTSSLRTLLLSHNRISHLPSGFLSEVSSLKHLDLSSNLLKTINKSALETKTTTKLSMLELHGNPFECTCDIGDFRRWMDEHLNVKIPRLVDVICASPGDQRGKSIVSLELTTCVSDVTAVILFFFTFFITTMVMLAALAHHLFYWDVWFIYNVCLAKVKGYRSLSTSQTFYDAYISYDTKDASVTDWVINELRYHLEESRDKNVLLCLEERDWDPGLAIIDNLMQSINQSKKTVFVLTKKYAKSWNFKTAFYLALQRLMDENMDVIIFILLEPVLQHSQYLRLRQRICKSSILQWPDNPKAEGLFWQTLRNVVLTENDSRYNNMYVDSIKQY
Description: as §1, §2

Compound	TLR 7 wt LEC [1]	EC50 [2] [nM]	TLR 8 wt LEC [3]
CCCCNc1nc(N)ncc1OCCCc1ccc(F)cc1F [Compound 107]	2.460	1590	3.940
CCCCNc1nc(N)ncc1OCCCc1ccccc1Br [Compound 108]	6.580	6770	>25
CCCCNc1nc(N)ncc1OCCCc1ccc(Cl)cc1 [Compound 109]	0.790	393	2.230
CCCCNc1nc(N)ncc1OCCCCc1ccccc1 [Compound 110]	2.380	740	3.780
CCCC(C)Nc1nc(N)ncc1OCCCc1ccccc1 (stereo not drawn) [Compound 112]	3.960	3350	5.560
CCCC[C@@H](CCO)Nc1nc(N)ncc1OCCCc1ccccc1 [Compound 113]	0.433	251	2.240
CCCC(CCC)Nc1nc(N)ncc1OCCCc1ccccc1 [Compound 114]	2.020	2000	>25
CC[C@H](C)[C@@H](CO)Nc1nc(N)ncc1OCCCc1ccccc1 [Compound 115]	6.180	3730	6.510
CCCCNc1nc(N)ncc1OCc1cc(-c2ccco2)on1 [Compound 116]	0.652	66	1.610
CCCCNc1nc(N)ncc1OCc1cc(C)n(C)n1 [Compound 117]	0.335	88	1.120
CCCCNc1nc(N)ncc1OCc1c(C)noc1-c1ccccc1 [Compound 118]	1.670	976	3.710
CCCCNc1nc(N)ncc1OCc1ccc(C(F)(F)F)o1 [Compound 119]	1.720	193	6.120
CCCCNc1nc(N)ncc1OCc1ccc(C(=O)OC)o1 [Compound 120]	0.649	273	3.910
CCCCNc1nc(N)ncc1OCc1ccc(C(F)(F)F)nc1 [Compound 121]	0.797	272	3.020
CCCCNc1nc(N)ncc1OCc1cccc(C)n1 [Compound 122]	0.118	25	0.628
CCCCCNc1nc(N)nc(C)c1OCc1ccccc1 [Compound 124]	15.610	> 23800	13.650
CCC[C@@H](CO)Nc1nc(N)ncc1OCCCc1ccccc1 [Compound 125]	1.630	336	0.598
CCCCNc1nc(N)ncc1OCCOc1ccc(C#N)cc1 [Compound 126]	1.000	264	1.020
CCCCNc1nc(N)ncc1OCCOc1cccc(OC)c1 [Compound 127]	1.030	256	2.050
CCCCNc1nc(N)ncc1OCCOc1ccnc2ccccc12 [Compound 128]	2.430	284	3.740
CCCCNc1nc(N)ncc1OCCOc1cc(OC)cc(OC)c1 [Compound 129]	2.090	432	3.250
CCCCNc1nc(N)ncc1OCCOc1cccc(OC)c1OC [Compound 130]	0.676	103	6.560
CCCCNc1nc(N)ncc1OCCOc1ccccc1C(F)(F)F [Compound 131]	1.700	806	>25
